Source: ChEMBL document CHEMBL1130963, “Design and construction of novel thrombin inhibitors featuring P3-P4 quaternary lactam dipeptide surrogates” (Bioorg Med Chem Lett, 1998)

What was measured:
[1] = Ratio of thrombolytic enzyme plasmin to thrombin (FIIa) was evaluated
[2] = target: Prothrombin (Homo sapiens, UniProt P00734); test: In vitro inhibitory activity was evaluated against thrombin (FIIa)
[3] = target: T1, Coagulation factor X (Homo sapiens, UniProt P00742); test: In vitro inhibitory activity was evaluated against thrombin factor Xa (FXa); Inactive
T1 sequence (P00742 41-179 limits assumed): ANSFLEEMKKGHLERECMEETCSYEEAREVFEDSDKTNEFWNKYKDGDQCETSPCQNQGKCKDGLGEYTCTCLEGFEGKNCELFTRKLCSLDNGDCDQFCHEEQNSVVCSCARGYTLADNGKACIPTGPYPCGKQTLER
T1 sequence (P00742 235-488 limits assumed): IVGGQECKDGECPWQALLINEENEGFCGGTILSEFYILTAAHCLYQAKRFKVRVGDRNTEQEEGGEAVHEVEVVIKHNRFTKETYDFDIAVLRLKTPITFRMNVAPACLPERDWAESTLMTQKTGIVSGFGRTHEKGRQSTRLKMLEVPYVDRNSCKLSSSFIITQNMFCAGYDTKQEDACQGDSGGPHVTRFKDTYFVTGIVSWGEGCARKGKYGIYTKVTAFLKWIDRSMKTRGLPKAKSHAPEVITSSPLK

[4] = target: T2, Plasminogen (Homo sapiens, UniProt P00747); test: In vitro inhibitory activity was evaluated against thrombolytic enzyme plasmin; Inactive
T2 sequence (P00747 97-580 limits assumed): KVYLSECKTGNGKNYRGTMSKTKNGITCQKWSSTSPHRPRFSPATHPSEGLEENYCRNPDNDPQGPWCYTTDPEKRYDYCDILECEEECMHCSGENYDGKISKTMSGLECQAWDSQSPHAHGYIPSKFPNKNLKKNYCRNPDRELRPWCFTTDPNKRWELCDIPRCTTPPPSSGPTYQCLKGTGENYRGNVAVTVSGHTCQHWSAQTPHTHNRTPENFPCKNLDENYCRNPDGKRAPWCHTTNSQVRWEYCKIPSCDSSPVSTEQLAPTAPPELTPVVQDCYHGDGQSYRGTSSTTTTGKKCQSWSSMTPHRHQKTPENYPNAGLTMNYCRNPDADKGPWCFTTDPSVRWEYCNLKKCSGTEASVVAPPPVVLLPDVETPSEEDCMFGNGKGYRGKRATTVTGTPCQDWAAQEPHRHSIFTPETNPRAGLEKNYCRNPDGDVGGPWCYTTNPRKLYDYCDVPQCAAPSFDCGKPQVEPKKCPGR
T2 sequence (P00747 581-810 limits assumed): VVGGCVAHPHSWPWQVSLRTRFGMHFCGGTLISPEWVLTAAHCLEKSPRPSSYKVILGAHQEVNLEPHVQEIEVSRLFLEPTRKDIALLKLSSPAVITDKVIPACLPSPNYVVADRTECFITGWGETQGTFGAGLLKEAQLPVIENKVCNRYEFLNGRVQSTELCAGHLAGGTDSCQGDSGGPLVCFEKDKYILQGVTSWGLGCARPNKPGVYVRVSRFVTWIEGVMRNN

[5] = target: Serine protease 1 (Homo sapiens, UniProt P07477)
Chain of Serine protease 1 (P07477 whole entry): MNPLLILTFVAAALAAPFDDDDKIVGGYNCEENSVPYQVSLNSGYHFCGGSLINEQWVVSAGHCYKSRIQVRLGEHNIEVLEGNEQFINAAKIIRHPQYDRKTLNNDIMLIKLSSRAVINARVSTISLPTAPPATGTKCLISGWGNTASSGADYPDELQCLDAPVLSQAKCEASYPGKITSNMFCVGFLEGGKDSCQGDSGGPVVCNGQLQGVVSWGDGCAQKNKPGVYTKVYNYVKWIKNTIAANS

[6] = Ratio of thrombin factor Xa (FXa) to thrombin (FIIa) was evaluated; Very high
[7] = target: T2, Plasminogen; test: In vitro inhibitory activity was evaluated against thrombolytic enzyme plasmin
[8] = target: T1, Coagulation factor X

## N=C(N)N1CCC[C@H](NC(=O)CN2CCC[C@@](N)(Cc3ccccc3)C2=O)[C@H]1O
[1]
  Ratio: 67.1
[2]
  IC50: 2.07 nM
[3]
  IC50: Not Active
[4]
  IC50: Not Active
[5]
  IC50: 139 nM
[6]
  Ratio: Very high

## N=C(N)N1CCC[C@H](NC(=O)CN2CCC[C@@](N)(Cc3ccccc3)C2=O)[C@@H]1O
[1]
  Ratio: 18.2
[2]
  IC50: 138 nM
[3]
  IC50: Not Active
[4]
  IC50: Not Active
[5]
  IC50: 2500 nM

## CCOC(=O)[C@]1(NS(=O)(=O)Cc2ccccc2)CCCN(CC(=O)N[C@H]2CCCN(C(=N)N)[C@H]2O)C1=O
[7]
  IC50: > 2500 nM
[1]
  Ratio: 3.1
[8]
  IC50: 43.2 nM
[2]
  IC50: 64.4 nM
[5]
  IC50: 202 nM

## N=C(N)N1CCC[C@H](NC(=O)CN2CCC[C@H](NS(=O)(=O)Cc3ccccc3)C2=O)C1O (stereo partly drawn)
[7]
  IC50: > 2500 nM
[1]
  Ratio: 128

## CCOC(=O)[C@]1(NS(=O)(=O)Cc2ccccc2)CCCN(CC(=O)N[C@H]2CCCN(C(=N)N)[C@@H]2O)C1=O
[7]
  IC50: 271 nM
[1]
  Ratio: 1.8
[8]
  IC50: 5.78 nM
[2]
  IC50: 1.1 nM
[5]
  IC50: 2 nM
